# Values quoted from earlier work as cited in patent US9259405B2, “Method of treating functional somatic syndromes with combination of famciclovir and diclofenac” (INNOVATIVE MED CONCEPTS, LLC, priority 2012, dated 2016).
# Tested on: fibromyalgia patients
# Settings: J. Rheumatology (2004) 31, 783-784
smiles,measurement,value
CC(C)[C@H](N)C(=O)OCCOCn1cnc2c(=O)[nH]c(N)nc21 [valacyclovir],treatment of fibromyalgia patients,not successful
